# Source: US20210130291A1, “METHODS FOR TREATING DIABETES USING VDAC1 INHIBITORS” (THE NATIONAL INSTITUTE FOR BIOTECHNOLOGY IN THE NEGEV LTD., priority 2016, published 2021)
# Key:
# [1] = tested on: VDAC1 expression in INS-1 cells; assay: VDAC1 expression in INS-1 cells cultured at 5 or 20 mM glucose; assay type: cell-based, rat; conditions: INS-1 cells cultured 72 h at 20 mM glucose; VDAC1ab 10 nM, metformin, AKOS, VBIT-4 20 μM each (FIG. 4l, 4m)
# Description: INS-1 832/13 cells (kindly donated by Dr. C. B. Newgaard, Duke University, USA) were cultured in RPMI-1640 containing 11.1 mM D-glucose and supplemented with 10% fetal bovine serum, 100 U/ml penicillin (Gibco), 100 µg/ml streptomycin (Gibco), 10 mM HEPES, 2 mM glutamine, 1 mM sodium pyruvate, and 50 µM β-mercaptoethanol (Sigma), at 37° C. in a humidified atmosphere containing 95% air and 5% CO2. For VDAC1 over-expression by VDAC1 plasmid (1 μg/ml) and VDAC2 down-regulation by and siRNA, INS1 832/13 cells were cultured to 60% confluence. To study the long-term effects (24-72 h) of high glucose (20 mM) (glucotoxicity) compared to basal glucose (5 mM), INS-1 832/13 cells were cultured with RPMI 1640 complete media (Ahmed, M., et al., 2010. Islets 2, 283-292) in the presence or absence of indicated agents and thereafter VDAC1 expression, cell viability and function was measured.
# Total RNA from handpicked mouse islets, human donor islets (Diabetic and non-diabetic) or INS1 832/13 cells were extracted using RNAeasy (Qiagen, Hilden, Germany). RNA ([…]) was used for cDNA synthesis with SuperScript (Invitrogen, Carlsbad, Calif., USA). Concentration and purity of total RNA was measured with a NanoDrop ND-1000 spectrophotometer (A260/A280>1.9 and A260/A230>1.4) (NanoDrop Technologies, Wilmington, Del.) and RNA Quality Indicator (RQI) higher than 8.0 (Experion Automated Electrophoresis, Bio-Rad, USA) was considered to be high-quality total RNA preparations. A 10 μl of reaction mixture with 20 ng cDNA, 5 μl TaqMan mastermix (Applied Biosystems, Foster City, Calif., USA), and 100 nM TagMan gene expression assay were run in a 7900HT Fast Real-Time System (Applied Biosystems). The qPCR was carried out as follows: 50° C. for 2 minutes, 95° C. for 10 minutes, 40 cycles of 95° C. for 15 seconds, and 60° C. for 1 minute. The amount of mRNA was calculated relative to the amount of housekeeping genes (GAPDH, PPIA or HPRT) mRNA in the same sample by the formula X0/R0=2CtR-CtX, where X0 is the original amount of mRNA for the gene of interest, R0 is the original amount of HPRT mRNA, CtR the Ct value for HPRT, and CtX the Ct value for the gene of interest. Primer sequences are provided upon request.
# islets from T2D donors = assay: ATP content and GSIS in islets from T2D donors, acute addition of VDAC1 inhibitors; assay type: cell-based, human; conditions: for GSIS: T2D islets, acute addition 1 h (FIG. 6f); for islet ATP content: islets from 5 T2D donors and one IGT donor, 1 h, at 1 and 16.7 mM glucose (FIG. 6e)
# From the text: Human pancreatic islets were obtained through collaboration between Human Tissue Laboratory within Lund University Diabetes Centre (LUDC) and the Nordic Network for Clinical Islet Transplantation (Prof. Olle Korsgren, Uppsala University, Sweden). Donors were grouped according to HbA1c i.e. less than 6% (ND), between 6% and 6.5% (IGT), higher than 6.5% or history of diabetes (T2D). The human islets (70-90% purity) had been cultured in CMRL 1066 (ICN Biomedicals, Costa Mesa, Calif.) supplemented with 10 mM HEPES, 2 mM L-glutamine, […] gentamicin, […] fungizone (Gibco, BRL, Gaithersburg, Md.), 20 μg/ml ciprofloxacin (Bayer Healthcare, Leverkusen, Germany) and 10 mM nicotinamide at 37° C. (5% CO2) for 1 to 5 days prior to the arrival in the laboratory. The islets were then hand-picked under stereomicroscope prior to use. All procedures using human islets were approved by the ethical committees at Uppsala and Lund Universities, Sweden.
# (§1) Human pancreatic islets were collected under a stereomicroscope at room temperature and cultured at 5.5 or 20 mM glucose in the absence or presence of test agents for 72 h. Thereafter the islets were washed and preincubated for 30 min at 37° C. in Krebs Ringer bicarbonate buffer, pH 7.4, supplemented with N-2 hydroxyethylpiperazine-N′-2-ethanesulfonic acid (10 mM), 0.1% bovine serum albumin, and 1 mM glucose. Each incubation vial contained 12 islets in 1.0 ml KRB buffer solution and treated with 95% O2 and 5% CO2 to obtain constant pH and oxygenation. After preincubation, the buffer was changed to a medium containing either 1 mM or 16.7 mM glucose. The islets were then incubated for 1 h at 37° C. in a metabolic shaker (30 cycles per min). Immediately after incubation an aliquot of the medium was removed for analysis of insulin and the islets were incubated in acid-ethanol for insulin content determination by radioimmunoassay.
# (§2) ATP release from isolated mouse or human islets or from INS-1 cells after transfection with mitochondrial targeted VDAC1 (mtVDAC1) or plasma membrane targeted VDAC1 (plVDAC1) plasmids was determined using a luminometric assay kit according to manufacturer's recommendation (Biovision). After incubation of islets (50/vial) or INS-1 cells for 60 min, an aliquot of the media was removed for subsequent measurements of released ATP. Then the islets or INS-1 cells were washed 3 times and the lysates were used for measurements of ATP and protein contents followed the protocol provided by the vendor.
# islets of C57/BL mice = assay: ATP content and GSIS in islets of control C57/BL mice; assay type: cell-based, mouse; conditions: VDAC1 antibody 10 nM; for GSIS: others 20 μM (FIG. 7e); for ATP content: others 20 μM (FIG. 7d)
# Description: 5 weeks old db/db mice and control (C57/bl) (Janvier Laboratory, France), weighing 18-25 g, were used throughout the experiments. They were given a standard pellet diet (B&K) and tap water ad libitum. The experimental procedures were approved by the Ethics Committee for Animal Research at Lund University. Isolation of pancreatic islets was performed by retrograde injection of a collagenase solution via the bile-pancreatic duct and islets were then collected under a stereomicroscope at room temperature.
# as §1, §2
SMILES,glucose evoked VDAC1 upregulation (total VDAC1 expression) [1],GSIS (islets from T2D donors),islet ATP content (islets from T2D donors),GSIS (islets of C57/BL mice),ATP content (islets of C57/BL mice)
CN(C)C(=N)N=C(N)N [metformin],abrogated the glucose evoked VDAC1 upregulation,increased in parallel with the improved ATP generation,increased islet ATP content,do not affect,do not affect
"O=C(CC(CO)N1CCN(c2ccc(OC(F)(F)F)cc2)CC1)Nc1ccc(Cl)cc1 (racemic) [VBIT-4, N-(4-chlorophenyl)-4-hydroxy-3-(4-(4-(trifluoromethoxy)phenyl)-piperazin-1-yl)butanamide]",abrogated the glucose evoked VDAC1 upregulation,increased in parallel with the improved ATP generation,increased islet ATP content,do not affect,do not affect
